{
  "source": "ChEMBL document CHEMBL1122946",
  "about": "“Folate antagonists. 21. Synthesis and antimalarial properties of 2,4-diamino-6-(benzylamino)pyrido[3,2-d]pyrimidines” (1985)",
  "key": {"Mus musculus [1]": {"tested_on": "Mus musculus", "assay": "Mean survival time against trophozoite induced Plasmodium berghei in mice minus control was evaluated at a dose 5 mg/kg.", "assay_type": "functional"}, "Mus musculus [2]": {"tested_on": "Mus musculus", "assay": "Mean survival time against trophozoite induced Plasmodium berghei in mice minus control was evaluated at a dose 640 mg/kg; 5 toxic death occurred out of 5 animals on days 2-5 after injection", "assay_type": "functional, organism-based", "set-up": "dose 640 mg/kg"}, "Mus musculus [3]": {"tested_on": "Mus musculus", "assay": "Mean survival time against trophozoite induced Plasmodium berghei in mice minus control was evaluated at a dose 80 mg/kg; 4 toxic death occurred out of 10 animals on days 2-5 after injection.", "assay_type": "functional, organism-based", "set-up": "dose 80 mg/kg"}, "Mus musculus [4]": {"tested_on": "Mus musculus", "assay": "Mean survival time against trophozoite induced Plasmodium berghei in mice minus control was evaluated at a dose 20 mg/kg;3 survived out of 15 animals at 60 days postinjection", "assay_type": "functional, organism-based", "set-up": "dose 20 mg/kg"}, "Mus musculus [5]": {"tested_on": "Mus musculus", "assay": "Mean survival time against trophozoite induced Plasmodium berghei in mice minus control was evaluated at a dose 10 mg/kg", "assay_type": "functional"}, "Mus musculus [6]": {"tested_on": "Mus musculus", "assay": "Mean survival time against trophozoite induced Plasmodium berghei in mice minus control was evaluated at a dose 320 mg/kg; 8 toxic death occurred out f 10 animals on days 2-5 after injection", "assay_type": "functional, organism-based", "set-up": "dose 320 mg/kg"}, "Mus musculus [7]": {"tested_on": "Mus musculus", "assay": "Mean survival time against trophozoite induced Plasmodium berghei in mice minus control was evaluated at a dose 1.25 mg/kg", "assay_type": "functional"}, "Mus musculus [8]": {"tested_on": "Mus musculus", "assay": "Mean survival time against trophozoite induced Plasmodium berghei in mice minus control was evaluated at a dose 160 mg/kg; 8 toxic death occurred out of 10 animals on days 2-5 after injection", "assay_type": "functional, organism-based", "set-up": "dose 160 mg/kg"}, "Mus musculus [9]": {"tested_on": "Mus musculus", "assay": "Mean survival time against trophozoite induced Plasmodium berghei in mice minus control was evaluated at a dose 2.5 mg/kg.", "assay_type": "functional"}, "Mus musculus [10]": {"tested_on": "Mus musculus", "assay": "Mean survival time against trophozoite induced Plasmodium berghei in mice minus control was evaluated at a dose 40 mg/kg; 11 survived out of 15 animals at 60 days postinjection", "assay_type": "functional, organism-based", "set-up": "dose 40 mg/kg"}, "Mus musculus [11]": {"tested_on": "Mus musculus", "assay": "Mean survival time against trophozoite induced Plasmodium berghei in mice minus control was evaluated at a dose 640 mg/kg; 15 toxic death occurred out of 15 animals on days 2-5 after injection", "assay_type": "functional, organism-based", "set-up": "dose 640 mg/kg"}, "Mus musculus [12]": {"tested_on": "Mus musculus", "assay": "Mean survival time against trophozoite induced Plasmodium berghei in mice minus control was evaluated at a dose 80 mg/kg; 5 survived out of 5 animals at 60 days postinjection.", "assay_type": "functional, organism-based", "set-up": "dose 80 mg/kg"}, "Mus musculus [13]": {"tested_on": "Mus musculus", "assay": "Mean survival time against trophozoite induced Plasmodium berghei in mice minus control was evaluated at a dose 10 mg/kg.", "assay_type": "functional"}, "Mus musculus [14]": {"tested_on": "Mus musculus", "assay": "Mean survival time against trophozoite induced Plasmodium berghei in mice minus control was evaluated at a dose 320 mg/kg; 10 toxic death occurred out of 10 animals on days 2-5 after injection", "assay_type": "functional, organism-based", "set-up": "dose 320 mg/kg"}, "Mus musculus [15]": {"tested_on": "Mus musculus", "assay": "Mean survival time against trophozoite induced Plasmodium berghei in mice minus control was evaluated at a dose 40 mg/kg", "assay_type": "functional"}, "Mus musculus [16]": {"tested_on": "Mus musculus", "assay": "Mean survival time against trophozoite induced Plasmodium berghei in mice minus control was evaluated at a dose 1.25 mg/kg.", "assay_type": "functional"}, "Mus musculus [17]": {"tested_on": "Mus musculus", "assay": "Mean survival time against trophozoite induced Plasmodium berghei in mice minus control was evaluated at a dose 160 mg/kg; 14 toxic death occurred out of 20 animals on days 2-5 after injection", "assay_type": "functional, organism-based", "set-up": "dose 160 mg/kg"}, "Mus musculus [18]": {"tested_on": "Mus musculus", "assay": "Mean survival time against trophozoite induced Plasmodium berghei in mice minus control was evaluated at a dose 20 mg/kg", "assay_type": "functional"}},
  "data": [
    {"molecule": "CC#N.CC(C)N(Cc1ccc(Cl)cc1)c1ccc2nc(N)nc(N)c2n1", "values": [
      {"measurement": "Delta MST", "setting": "Mus musculus [1]", "value": 8.5, "unit": "days"},
      {"measurement": "Delta MST", "setting": "Mus musculus [2]", "value": "Toxic Deaths 5/5"},
      {"measurement": "Delta MST", "setting": "Mus musculus [3]", "value": "Toxic Deaths 4/10"},
      {"measurement": "Delta MST", "setting": "Mus musculus [4]", "value": "Survivals 3/15"},
      {"measurement": "Delta MST", "setting": "Mus musculus [5]", "value": 11.5, "unit": "days"},
      {"measurement": "Delta MST", "setting": "Mus musculus [6]", "value": "Toxic Deaths 8/10"},
      {"measurement": "Delta MST", "setting": "Mus musculus [7]", "value": 3.5, "unit": "days"},
      {"measurement": "Delta MST", "setting": "Mus musculus [8]", "value": "Toxic Deaths 8/10"},
      {"measurement": "Delta MST", "setting": "Mus musculus [9]", "value": 6.5, "unit": "days"},
      {"measurement": "Delta MST", "setting": "Mus musculus [10]", "value": "Survivals 11/15"}
    ]},
    {"molecule": "CCCN(Cc1ccc(Cl)cc1)c1ccc2nc(N)nc(N)c2n1", "values": [
      {"measurement": "Delta MST", "setting": "Mus musculus [1]", "value": 8.9, "unit": "days"},
      {"measurement": "Delta MST", "setting": "Mus musculus [11]", "value": "Toxic Deaths 15/15"},
      {"measurement": "Delta MST", "setting": "Mus musculus [12]", "value": "Survivals 5/5"},
      {"measurement": "Delta MST", "setting": "Mus musculus [13]", "value": 10.3, "unit": "days"},
      {"measurement": "Delta MST", "setting": "Mus musculus [14]", "value": "Toxic Deaths 10/10"},
      {"measurement": "Delta MST", "setting": "Mus musculus [15]", "value": 21.3, "unit": "days"},
      {"measurement": "Delta MST", "setting": "Mus musculus [16]", "value": 6.9, "unit": "days"},
      {"measurement": "Delta MST", "setting": "Mus musculus [17]", "value": "Toxic Deaths 14/20"},
      {"measurement": "Delta MST", "setting": "Mus musculus [9]", "value": 8.1, "unit": "days"},
      {"measurement": "Delta MST", "setting": "Mus musculus [18]", "value": 18, "unit": "days"}
    ]}
  ]
}
